ChEMBL document CHEMBL4765266, “Design, synthesis and structure-activity relationships of 4-phenyl-1H-1,2,3-triazole phenylalanine derivatives as novel HIV-1 capsid inhibitors with promising antiviral activities” (Eur J Med Chem, 2020)
The source made the active and inactive calls. No cut-off for these calls is given here.

What was measured:
[1] = system: Human immunodeficiency virus 1; assay: Antiviral activity against HIV1 NL4-3 infected in human TZM-bl cells assessed as reduction in virus induced cytopathic effect measured after 2 days by luciferase gene expression assay; assay type: functional, organism-based; conditions: Human immunodeficiency virus 1, NL4-3, TZM-bl, 48 h
TZM = assay: Cytotoxicity against in human TZM-bl cells assessed as reduction in cell viability measured after 2 days by CytoTox-Glo cytotoxicity assay; conditions: 48 h
in vitro [2] = conditions: human, liver microsomes
Description: Metabolic stability in human liver microsomes assessed as parent compound remaining in presence of NADPH after 1 hr by LC/MS/MS method

[3] = human, microsomes, 1 h
Description: Metabolic stability in human liver microsomes assessed as parent compound remaining in absence of NADPH after 1 hr by LC/MS/MS method

[4] = Binding affinity to HIV1 NL4-3 capsid protein hexamer assessed as dissociation constant by SPR analysis; parameters: species or system Human immunodeficiency virus 1
in vitro [5] = conditions: human, TZM-bl cells
Description: Selectivity index, ratio of CC50 for human TZM-bl cells to EC50 for HIV1 NL4-3 infected in human TZM-bl cells

[6] = human, microsomes, 1 h; remark: listed apart in the source
[7] = system: Human immunodeficiency virus 1; assay: Antiviral activity against HIV1 NL4-3 Env-deficient pseudotype virus infected in human U87/CD4/CCR5 cells assessed by reduction in viral production in late stage measured after 48 hrs by luciferase activity based single-round infection assay; assay type: functional, organism-based; conditions: Human immunodeficiency virus 1, NL4-3, U87/CD4/CCR5, 48 h
[8] = Metabolic stability in human plasma assessed as parent compound remaining after 10 mins by LC/MS/MS method; assay type: ADME, cell-free
[9] = Metabolic stability in human plasma assessed as parent compound remaining after 30 mins by LC/MS/MS method; assay type: ADME, cell-free; conditions: 0.5 h
[10] = Metabolic stability in human plasma assessed as parent compound remaining after 60 mins by LC/MS/MS method; assay type: ADME, cell-free; conditions: 1 h
[11] = system: Human immunodeficiency virus 1; assay: Antiviral activity against HIV1 NL4-3 Env-pseudotype virus in human U87/CD4/CCR5 cells assessed as reduction in p24 production at 10 uM by ELISA reader relative to control; assay type: functional
[12] = Metabolic stability in human plasma assessed as parent compound remaining after 120 mins by LC/MS/MS method; assay type: ADME, cell-free; conditions: 2 h
[13] = human, microsomes, 1 h; remark: listed apart in the source
U87/CD4/CCR5 [14] = assay: Effect on HIV1 NL4-3 capsid protein assembly at 50 uM measured every 1 min for 19 mins by Spectrophotometer method; conditions: Human immunodeficiency virus 1
[15] = Binding affinity to HIV1 NL4-3 capsid protein monomer assessed as dissociation constant by SPR analysis; parameters: species or system Human immunodeficiency virus 1
[16] = system: Human immunodeficiency virus 1; assay: Antiviral activity against HIV1 NL4-3 Env-deficient pseudotype virus infected in human U87/CD4/CCR5 cells assessed by reduction in viral production in early stage measured after 48 hrs by luciferase activity based single-round infection assay; assay type: functional, organism-based; conditions: Human immunodeficiency virus 1, NL4-3, U87/CD4/CCR5, 48 h
U87/CD4/CCR5 [17] = assay: Induction of HIV1 NL4-3 capsid protein assembly at 50 uM measured every 1 min for 19 mins by Spectrophotometer method; conditions: Human immunodeficiency virus 1

| SMILES | EC50 [1] [µM] | CC50 (TZM) [µM] | selectivity ratio (in vitro [5]) | further results |
| --- | --- | --- | --- | --- |
| COc1ccc(N(C)C(=O)[C@H](Cc2ccccc2)NC(=O)Cn2cc(-c3ccccc3NC(=O)c3ccc(-c4ccccc4)cc3)nn2)cc1 | > 15 | > 15 | – | – |
| COc1ccc(N(C)C(=O)[C@H](Cc2ccccc2)NC(=O)Cn2cc(-c3ccccc3NC(=O)c3ccc(C)cc3)nn2)cc1 | > 16.6 | > 16.6 | – | – |
| COC(=O)c1ccc(C(=O)Nc2ccc(-c3cn(CC(=O)N[C@@H](Cc4ccccc4)C(=O)N(C)c4ccc(OC)cc4)nn3)cc2)cc1 | > 15.5 | > 15.5 | – | – |
| COc1ccc(N(C)C(=O)[C@H](Cc2ccccc2)NC(=O)Cn2cc(-c3ccccc3NC(=O)c3ccccc3F)nn2)cc1 | 3.13 | > 16.5 | > 5.27 | remaining at 1 h (in vitro [2]): 0.3%; Stabilty [3]: 122.1%; Kd [4]: 6.04 µM; CLH [6]: 1559.4 µL/min/mg; IC50 [7]: 0.32 µM; Stabilty [8]: 91.3%; Stabilty [9]: 94.6%; Stabilty [10]: 86.9%; inhibition at 10 µM ([11]; Human immunodeficiency virus 1, NL4-3, U87/CD4/CCR5): 15%; Stabilty [12]: 107.4%; t1/2 [13]: 0.9 min; Activity (U87/CD4/CCR5 [14]): inactive; Kd [15]: 7.95 µM; IC50 [16]: 8.18 µM |
| CC(C)[N+](C)(CCOC(=O)C1c2ccccc2Oc2ccccc21)C(C)C.[Br-] [PROPANTHELINE BROMIDE] | – | – | – | Stabilty [8]: 47.7%; Stabilty [9]: 9.1%; Stabilty [10]: 0.6% |
| COC(=O)c1ccc(C(=O)Nc2ccccc2-c2cn(CC(=O)N[C@@H](Cc3ccccc3)C(=O)N(C)c3ccc(OC)cc3)nn2)cc1 | > 15.5 | > 15.5 | – | – |
| COc1ccc(N(C)C(=O)[C@H](Cc2ccccc2)NC(=O)Cn2cc(-c3ccccc3NC(=O)c3ccc(F)cc3)nn2)cc1 | 3.46 | > 16.5 | > 4.76 | – |
| COc1ccc(N(C)C(=O)[C@H](Cc2ccccc2)NC(=O)Cn2cc(-c3ccccc3NC(=O)c3ccccc3)nn2)cc1 | 3.74 | > 17 | > 4.54 | – |
| COc1ccc(N(C)C(=O)[C@H](Cc2ccccc2)NC(=O)Cn2cc(-c3ccccc3NC(=O)c3ccc(C#N)cc3)nn2)cc1 | > 16.3 | > 16.3 | – | – |
| COc1ccc(N(C)C(=O)[C@H](Cc2ccccc2)NC(=O)Cn2cc(-c3cccc(NC(=O)c4ccccc4OC)c3)nn2)cc1 | > 16.2 | > 16.2 | – | – |
| COc1ccc(N(C)C(=O)[C@H](Cc2ccccc2)NC(=O)Cn2cc(-c3cccc(NC(=O)c4ccc(F)cc4)c3)nn2)cc1 | > 16.5 | > 16.5 | – | – |
| COc1ccc(N(C)C(=O)[C@H](Cc2ccccc2)NC(=O)Cn2cc(-c3ccc(NC(=O)c4ccc(-c5ccccc5)cc4)cc3)nn2)cc1 | 12.2 | > 15 | > 1.23 | – |
| COC(=O)c1ccc(C(=O)Nc2cccc(-c3cn(CC(=O)N[C@@H](Cc4ccccc4)C(=O)N(C)c4ccc(OC)cc4)nn3)c2)cc1 | > 15.5 | > 15.5 | – | – |
| COc1ccc(N(C)C(=O)[C@H](Cc2ccccc2)NC(=O)Cn2cc(-c3ccc(NC(=O)c4cccc(OC)c4)cc3)nn2)cc1 | > 16.2 | > 16.2 | – | – |
| COc1ccc(N(C)C(=O)[C@H](Cc2ccccc2)NC(=O)Cn2cc(-c3cccc(NC(=O)c4ccc(C)cc4)c3)nn2)cc1 | > 16.6 | > 16.6 | – | – |
| COc1ccc(N(C)C(=O)[C@H](Cc2ccccc2)NC(=O)Cn2cc(-c3ccc(NC(=O)c4ccc(F)cc4)cc3)nn2)cc1 | 13 | > 16.5 | > 1.27 | – |
| COc1ccc(N(C)C(=O)[C@H](Cc2ccccc2)NC(=O)Cn2cc(-c3ccc(NC(=O)c4ccccc4F)cc3)nn2)cc1 | 11.9 | > 16.5 | > 1.39 | – |
| COc1ccc(N(C)C(=O)[C@H](Cc2ccccc2)NC(=O)Cn2cc(-c3ccc(N)cc3)nn2)cc1 | 13.6 | > 20.6 | > 1.51 | – |
| COc1ccc(N(C)C(=O)[C@H](Cc2ccccc2)NC(=O)Cn2cc(-c3ccc(NC(C)=O)cc3)nn2)cc1 | > 19 | > 19 | – | – |
| COc1ccc(N(C)C(=O)[C@H](Cc2ccccc2)NC(=O)Cn2cc(-c3ccc(NC(=O)c4ccccc4OC)cc3)nn2)cc1 | > 16.2 | > 16.2 | – | – |
| COc1ccc(N(C)C(=O)[C@H](Cc2ccccc2)NC(=O)Cn2cc(-c3ccc(NC(=O)c4ccc(C)cc4)cc3)nn2)cc1 | > 16.6 | > 16.6 | – | – |

| SMILES | EC50 [1] [µM] | CC50 (TZM) [µM] | selectivity ratio (in vitro [5]) | further results |
| --- | --- | --- | --- | --- |
| COc1ccc(N(C)C(=O)[C@H](Cc2ccccc2)NC(=O)Cn2cc(-c3cccc(NC(C)=O)c3)nn2)cc1 | 14.8 | > 19 | > 1.28 | – |
| COc1ccc(N(C)C(=O)[C@H](Cc2ccccc2)NC(=O)Cn2cc(-c3ccccc3NC(C)=O)nn2)cc1 | 3.99 | > 19 | > 4.76 | – |
| COc1ccc(N(C)C(=O)[C@H](Cc2ccccc2)NC(=O)Cn2cc(-c3cccc(NC(=O)c4cccc(F)c4)c3)nn2)cc1 | 9.56 | > 16.5 | > 1.72 | – |
| COc1ccc(C(=O)Nc2ccc(-c3cn(CC(=O)N[C@@H](Cc4ccccc4)C(=O)N(C)c4ccc(OC)cc4)nn3)cc2)cc1 | > 16.2 | > 16.2 | – | – |
| COc1ccc(N(C)C(=O)[C@H](Cc2ccccc2)NC(=O)Cn2cc(-c3ccccc3NC(=O)c3cccc(OC)c3)nn2)cc1 | 12.8 | > 16.2 | > 1.27 | – |
| COc1ccc(C(=O)Nc2ccccc2-c2cn(CC(=O)N[C@@H](Cc3ccccc3)C(=O)N(C)c3ccc(OC)cc3)nn2)cc1 | > 16.2 | > 16.2 | – | – |
| COc1ccc(N(C)C(=O)[C@H](Cc2ccccc2)NC(=O)Cn2cc(-c3cccc(NC(=O)c4ccccc4F)c3)nn2)cc1 | 13.5 | > 16.5 | > 1.22 | – |
| COc1ccc(N(C)C(=O)[C@H](Cc2ccccc2)NC(=O)Cn2cc(-c3cccc(NC(=O)c4cccc(OC)c4)c3)nn2)cc1 | > 16.2 | > 16.2 | – | – |
| COc1ccc(N(C)C(=O)[C@H](Cc2ccccc2)NC(=O)Cn2cc(-c3cccc(NC(=O)c4ccc(C#N)cc4)c3)nn2)cc1 | 12.9 | > 16.3 | > 1.27 | – |
| COc1ccc(N(C)C(=O)[C@H](Cc2ccccc2)NC(=O)Cn2cc(-c3ccccc3NC(=O)c3ccccc3OC)nn2)cc1 | 8.41 | > 16.2 | > 1.92 | – |
| COc1ccc(C(=O)Nc2cccc(-c3cn(CC(=O)N[C@@H](Cc4ccccc4)C(=O)N(C)c4ccc(OC)cc4)nn3)c2)cc1 | > 16.2 | > 16.2 | – | – |
| COc1ccc(N(C)C(=O)[C@H](Cc2ccccc2)NC(=O)Cn2cc(-c3ccc(NC(=O)c4ccc(C#N)cc4)cc3)nn2)cc1 | 12.4 | > 16.3 | > 1.32 | – |
| COc1ccc(N(C)C(=O)[C@H](Cc2ccccc2)NC(=O)Cn2cc(-c3cccc(NC(=O)c4ccc(-c5ccccc5)cc4)c3)nn2)cc1 | > 15 | > 15 | – | – |
| COc1ccc(N(C)C(=O)[C@H](Cc2ccccc2)NC(=O)Cn2cc(-c3cccc(N)c3)nn2)cc1 | 3.3 | > 20.6 | > 6.25 | Kd [4]: 4 µM; Kd [15]: 15.8 µM |
| C[C@]12CC[C@H]3[C@@H](CCC4=CC(=O)CC[C@@]43C)[C@@H]1CC[C@@H]2O [TESTOSTERONE] | – | – | – | CLH [6]: 188.3 µL/min/mg; t1/2 [13]: 7.4 min |
| COc1ccc(N(C)C(=O)[C@H](Cc2ccccc2)NC(=O)Cn2cc(-c3ccc(NC(=O)c4ccccc4)cc3)nn2)cc1 | 12.9 | > 17 | > 1.32 | – |
| COc1ccc(N(C)C(=O)[C@H](Cc2ccccc2)NC(=O)Cn2cc(-c3ccccc3N)nn2)cc1 | 3.92 | > 20.6 | > 5.27 | – |
| Cc1[nH]c2ccccc2c1CC(=O)N[C@@H](Cc1ccccc1)C(=O)N(C)c1ccccc1 | 0.28 | > 23.5 | – | CLH [6]: 2403 µL/min/mg; IC50 [7]: 0.23 µM; Activity (U87/CD4/CCR5 [17]): Active; Stabilty [8]: 87.3%; Stabilty [9]: 83.4%; Stabilty [10]: 86.5%; inhibition [11]: Active; Stabilty [12]: 85.6%; Kd [15]: 2.4 µM; IC50 [16]: 0.056 µM |
| COc1ccc(N(C)C(=O)[C@H](Cc2ccccc2)NC(=O)Cn2cc(-c3ccccc3NC(=O)c3cccc(F)c3)nn2)cc1 | 3.3 | > 16.5 | > 4.99 | Kd [4]: 4.99 µM; Kd [15]: 6.8 µM |
| COc1ccc(N(C)C(=O)[C@H](Cc2ccccc2)NC(=O)Cn2cc(-c3ccc(NC(=O)c4cccc(F)c4)cc3)nn2)cc1 | 12.7 | > 16.5 | > 1.3 | – |
| COc1ccc(N(C)C(=O)[C@H](Cc2ccccc2)NC(=O)Cn2cc(-c3cccc(NC(=O)c4ccccc4)c3)nn2)cc1 | 12.7 | > 17 | > 1.33 | – |
